Data as given in patent publication US9884063B2, “Amido-substituted azole compounds” (Bayer Pharma Aktiengesellschaft, priority 2014, dated 2018).
pIC50: −log10 of the molar value.

Assays:
TNKS2 = molecular target: T1, TNKS2 (Homo sapiens, UniProt Q9H2K2); test: Modified TNKS2 Assay 2 (auto-parsylation, [3H]-NAD+ SPA); type: biochemical; details: 6 nM TNKS2, 96 well
T1 sequence (Q9H2K2 1-1166): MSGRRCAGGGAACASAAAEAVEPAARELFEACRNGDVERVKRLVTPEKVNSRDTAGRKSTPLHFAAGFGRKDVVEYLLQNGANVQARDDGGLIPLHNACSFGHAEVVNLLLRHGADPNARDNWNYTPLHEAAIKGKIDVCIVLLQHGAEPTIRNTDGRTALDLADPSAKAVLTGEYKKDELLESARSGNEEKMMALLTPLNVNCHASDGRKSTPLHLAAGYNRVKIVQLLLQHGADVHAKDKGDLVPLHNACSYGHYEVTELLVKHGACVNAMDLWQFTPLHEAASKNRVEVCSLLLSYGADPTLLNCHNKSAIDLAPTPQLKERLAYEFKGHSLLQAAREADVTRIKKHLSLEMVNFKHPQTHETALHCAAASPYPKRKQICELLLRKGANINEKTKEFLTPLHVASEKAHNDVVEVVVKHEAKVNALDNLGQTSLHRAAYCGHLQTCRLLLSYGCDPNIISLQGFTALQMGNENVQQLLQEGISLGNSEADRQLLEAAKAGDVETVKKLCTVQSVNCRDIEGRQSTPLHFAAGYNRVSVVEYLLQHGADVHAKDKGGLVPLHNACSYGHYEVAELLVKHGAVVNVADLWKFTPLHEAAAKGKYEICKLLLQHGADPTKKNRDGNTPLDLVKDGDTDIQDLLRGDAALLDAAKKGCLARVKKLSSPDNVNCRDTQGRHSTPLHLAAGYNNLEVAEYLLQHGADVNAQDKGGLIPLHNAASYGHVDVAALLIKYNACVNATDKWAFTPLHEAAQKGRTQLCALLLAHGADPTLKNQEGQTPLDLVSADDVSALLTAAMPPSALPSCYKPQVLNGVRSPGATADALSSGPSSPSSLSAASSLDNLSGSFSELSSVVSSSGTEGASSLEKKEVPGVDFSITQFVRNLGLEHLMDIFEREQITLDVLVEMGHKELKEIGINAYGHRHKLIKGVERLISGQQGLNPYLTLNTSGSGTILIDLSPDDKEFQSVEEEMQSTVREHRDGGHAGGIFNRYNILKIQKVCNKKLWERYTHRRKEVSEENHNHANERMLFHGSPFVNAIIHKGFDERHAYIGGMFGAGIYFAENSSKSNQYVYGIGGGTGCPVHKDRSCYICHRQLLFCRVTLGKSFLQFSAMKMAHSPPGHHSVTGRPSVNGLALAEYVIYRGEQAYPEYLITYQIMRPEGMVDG

[1] = tested on: wildtype Wnt signaling cascade; test: HEK293 TOP Assay (Super TopFlash luciferase reporter, Wnt-3a stimulated); type: cell-based
Outline: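 Compounds (50 μM down to 15 nM, 3.16-fold steps, in CAFTY buffer pH 7.4, 2 mM Ca2+, 0.01% BSA) tested in parallel on TOP and FOP HEK293 reporter lines to define selective wildtype Wnt inhibition. Pathway driven by recombinant human Wnt-3a applied at 2500–5 ng/ml in two-fold dilutions.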

[2] = Homo sapiens, HEK293, 16 h, HEK293 TOP reporter cell line, Wnt-3a at EC50, 16 hours incubation, compound dilution series 50 μM to 15 nM
[3] = Homo sapiens, HEK293, 16 h, HEK293 TOP reporter cells, Wnt3a at EC50, 16 hours, luciferase

| Structure (SMILES) | pIC50 (TNKS2) | pIC50 [1, 2] | pIC50 ([1]; HEK293 TOP reporter cell line, Wnt-3a at EC50, 16 hours incubation, compound dilution series 50 μM to 15 nM) | pIC50 [1, 3] |
| --- | --- | --- | --- | --- |
| CNC(=O)c1nc[nH]c1C(=O)Nc1ccc(NC(=O)c2c(C)cccc2F)cc1 [Example 375, N^5-{4-[(2-fluoro-6-methylbenzoyl)amino]phenyl}-N^4-methyl-1H-imidazole-4,5-dicarboxamide] | 5.92 | 5.95 |  |  |
| CNC(=O)c1nc[nH]c1C(=O)Nc1ccc(NC(=O)c2cccc(F)c2OC)cc1 [Example 367, N^5-{4-[(3-fluoro-2-methoxybenzoyl)amino]phenyl}-N^4-methyl-1H-imidazole-4,5-dicarboxamide] | < 5.00 | 4.91 |  |  |
| O=C(Nc1ccc(NC(=O)c2[nH]cnc2C(=O)N2CC3(COC3)C2)cc1)c1cc(F)c(F)cc1Cl [Example 52, N-{4-[(2-chloro-4,5-difluorobenzoyl)amino]phenyl}-4-(2-oxa-6-azaspiro[3.3]hept-6-ylcarbonyl)-1H-imidazole-5-carboxamide] | 6.66 | 6.21 |  |  |
| CNC(=O)c1nc[nH]c1C(=O)Nc1ccc(NC(=O)c2cncc(C)c2)cc1 [Example 366, N^4-methyl-N^5-(4-{[(5-methylpyridin-3-yl)carbonyl]amino}phenyl)-1H-imidazole-4,5-dicarboxamide] | < 5.00 | 4.30 |  |  |
| CNC(=O)c1nc[nH]c1C(=O)Nc1ccc(NC(=O)c2cc(F)ccc2OC)cc1 [Example 364, N^5-{4-[(5-fluoro-2-methoxybenzoyl)amino]phenyl}-N^4-methyl-1H-imidazole-4,5-dicarboxamide] | 5.10 | 4.30 |  |  |
| O=C(Nc1ccc(NC(=O)c2[nH]cnc2C(=O)NC2CC2)cc1)c1cc(F)c(F)cc1Cl [Example 51, N^5-{4-[(2-chloro-4,5-difluorobenzoyl)amino]phenyl}-N^4-cyclopropyl-1H-imidazole-4,5-dicarboxamide] | 7.30 | 6.85 |  |  |
| CS(=O)(=O)c1ccc(C(=O)Nc2ccc(NC(=O)c3[nH]cnc3C(=O)NCCN3CCCCC3)cc2)c(Cl)c1 [Example 53, N^5-(4-{[2-chloro-4-(methylsulfonyl)benzoyl]amino}phenyl)-N^4-[2-(piperidin-1-yl)ethyl]-1H-imidazole-4,5-dicarboxamide] | 8.00 | 7.40 |  |  |
| CNC(=O)c1nc[nH]c1C(=O)Nc1ccc(NC(=O)c2cc(C#N)ccc2F)cc1 [Example 349, N^5-{4-[(5-cyano-2-fluorobenzoyl)amino]phenyl}-N^4-methyl-1H-imidazole-4,5-dicarboxamide] | 5.66 | 6.14 |  |  |
| CC(CN1CCOCC1)NC(=O)c1[nH]cnc1C(=O)Nc1ccc(NC(=O)c2ccc(F)cc2Cl)cc1 (single isomer, unassigned; enantiomer 2) [Example 270, N^4-{4-[(2-chloro-4-fluorobenzoyl)amino]phenyl}-N^5-[1-(morpholin-4-yl)propan-2-yl]-1H-imidazole-4,5-dicarboxamide (enantiomer 2)] | 8.52 |  | 7.40 |  |
| O=C(Nc1ccc(NC(=O)c2[nH]cnc2C(=O)NCCC2CCCC2)cc1)c1ccc(F)cc1Cl [Example 42, N^5-{4-[(2-chloro-4-fluorobenzoyl)amino]phenyl}-N^4-(2-cyclopentylethyl)-1H-imidazole-4,5-dicarboxamide] | < 5.00 | 5.64 |  |  |
| CNC(=O)c1nc[nH]c1C(=O)Nc1ccc(NC(=O)c2ccc(C#N)cc2)cc1 [Example 322, N^5-{4-[(4-cyanobenzoyl)amino]phenyl}-N^4-methyl-1H-imidazole-4,5-dicarboxamide] | 6.02 | 5.64 |  |  |
| CNC(=O)c1nc[nH]c1C(=O)Nc1ccc(NC(=O)c2ccon2)cc1 [Example 376, N^4-methyl-N^5-{4-[(1,2-oxazol-3-ylcarbonyl)amino]phenyl}-1H-imidazole-4,5-dicarboxamide] | < 5.00 | 4.30 |  |  |
| CNC(=O)c1nc[nH]c1C(=O)Nc1ccc(NC(=O)c2cc(OC(F)(F)F)ccc2Br)cc1 [Example 64, N^5-(4-{[2-bromo-5-(trifluoromethoxy)benzoyl]amino}phenyl)-N^4-methyl-1H-imidazole-4,5-dicarboxamide] | < 5.00 | 5.84 |  |  |
| CNC(=O)c1nc[nH]c1C(=O)Nc1ccc(NC(=O)c2ccc(Br)cc2Cl)cc1 [Example 334, N^5-{4-[(4-bromo-2-chlorobenzoyl)amino]phenyl}-N^4-methyl-1H-imidazole-4,5-dicarboxamide] | 7.52 | 6.07 |  |  |
| O=C(Nc1ccc(NC(=O)c2ocnc2C(=O)NCCN2CCCCC2)cc1)c1ccc(F)cc1Cl [Example 303, N^5-{4-[(2-chloro-4-fluorobenzoyl)amino]phenyl}-N^4-[2-(piperidin-1-yl)ethyl]-1,3-oxazole-4,5-dicarboxamide] | 8.00 | 6.85 |  |  |
| CCNC(=O)c1nc[nH]c1C(=O)Nc1ccc(NC(=O)c2cc(OC)ccc2Cl)cc1 [Example 264, N^5-{4-[(2-chloro-5-methoxybenzoyl)amino]phenyl}-N^4-ethyl-1H-imidazole-4,5-dicarboxamide] | 6.32 | 5.80 |  |  |
| CNC(=O)c1nc[nH]c1C(=O)Nc1ccc(NC(=O)c2cccc(F)c2Cl)cc1 [Example 370, N^5-{4-[(2-chloro-3-fluorobenzoyl)amino]phenyl}-N^4-methyl-1H-imidazole-4,5-dicarboxamide] | 5.66 | 5.31 |  |  |
| CNC(=O)c1nc[nH]c1C(=O)Nc1ccc(NC(=O)c2cc(Cl)ccc2Cl)cc1 [Example 309, N^5-{4-[(2,5-dichlorobenzoyl)amino]phenyl}-N^4-methyl-1H-imidazole-4,5-dicarboxamide] | 6.47 | 6.62 |  |  |
| CNC(=O)c1nc[nH]c1C(=O)Nc1ccc(NC(=O)c2ccc(C)c(Cl)c2)cc1 [Example 344, N^5-{4-[(3-chloro-4-methylbenzoyl)amino]phenyl}-N^4-methyl-1H-imidazole-4,5-dicarboxamide] | < 5.00 | 4.57 |  |  |
| CN(C)CCNC(=O)c1nc[nH]c1C(=O)Nc1ccc(NC(=O)c2ccccc2Cl)c(F)c1 [Example 81, N^5-{4-[(2-chlorobenzoyl)amino]-3-fluorophenyl}-N^4-[2-(dimethylamino)ethyl]-1H-imidazole-4,5-dicarboxamide] | 6.80 | 6.18 |  |  |
| CNC(=O)c1nc[nH]c1C(=O)Nc1ccc(NC(=O)c2ccc(F)c(Cl)c2)cc1 [Example 340, N^5-{4-[(3-chloro-4-fluorobenzoyl)amino]phenyl}-N^4-methyl-1H-imidazole-4,5-dicarboxamide] | < 5.00 | 5.41 |  |  |
| CNC(=O)c1nc[nH]c1C(=O)Nc1ccc(NC(=O)c2c(Cl)cccc2C(F)(F)F)cc1 [Example 36, N^5-(4-{[2-chloro-6-(trifluoromethyl)benzoyl]amino}phenyl)-N^4-methyl-1H-imidazole-4,5-dicarboxamide] | < 5.00 | 5.21 |  | 5.21 |
| CNC(=O)c1nc[nH]c1C(=O)Nc1ccc(NC(=O)c2cc(F)ccc2Cl)cc1 [Example 361, N^5-{4-[(2-chloro-5-fluorobenzoyl)amino]phenyl}-N^4-methyl-1H-imidazole-4,5-dicarboxamide] | 7.00 | 6.59 |  |  |
| CCc1ccccc1C(=O)Nc1ccc(NC(=O)c2[nH]cnc2C(=O)NC)cc1 [Example 39, N^5-{4-[(2-ethylbenzoyl)amino]phenyl}-N^4-methyl-1H-imidazole-4,5-dicarboxamide] | 5.66 | 5.77 |  | 5.77 |
